First: COc1ccc(C2c3c(C)c(N4CCC(c5ccc(OC)c(OC)c5)CC4)c(C)c(C)c3OC2(C)C)cc1 (stereo unspecified)
Second: COc1ccc([C@H]2CCCC[C@H]2NC(=O)c2ccc(C(=O)c3ccccc3)cc2)cc1OC
The melting point of the first is higher: 154 to 156 °C for the first, 119 to 122 °C for the second.

Compared with `CCOC(=O)C(=O)c1oc(=O)[nH]c1-c1ccc(Cl)cc1`, `COC(=O)C(=O)Nc1ccc(Cl)cc1` is higher in melting point: 152 to 153 °C for the first, 162 to 164 °C for the second.

Compared with `Nc1nc(-c2cc(Cl)ccc2Cl)nc(N2CCC(Cc3ccccc3)CC2)n1`, `Nc1nc2ccccc2c2c1nc(CN1CCOCC1)n2Cc1ccccc1` is higher in melting point: 159 to 161 °C for the first, > 300 °C for the second.

First: O=c1c(-c2ccccc2)c(SCc2ccccc2)oc2cc(O)ccc12
Second: Cc1cccc(-c2nc3ccc(OCCCl)cc3n2Cc2ccccc2)c1
The melting point of the first is higher: 215 to 217 °C for the first, 88 °C for the second.

First: CNC(=O)C(C)Oc1ncn(-c2cccc(C(F)(F)F)c2)n1 (stereo unspecified)
Second: CCCc1nn(-c2ccc(C(F)(F)F)cn2)cc1CCCOc1cc(CCC(=O)O)n(-c2ccccc2)n1
The melting point of the first is lower: 137 to 139 °C for the first, 149 to 150 °C for the second.

Compared with `O=C(O)c1ccc(OCCNC(=O)C2Cc3ccccc3N2S(=O)(=O)c2ccc(-c3ccc(F)cc3F)cc2)cc1F` (stereo unspecified), `O=S(=O)(NCCCN1c2ccccc2CCc2ccc(Cl)cc21)c1ccc(OC(F)(F)F)cc1` is higher in melting point: 91 to 94 °C for the first, 119 to 121 °C for the second.

First: C[C@@H]1CN(C(=O)OC(C)(C)C)C[C@H]2Cc3cc(F)c(C=O)nc3N21
Second: COc1ccc([N+](=O)[O-])c(NC(=O)OC(C)(C)C)c1
The melting point of the first is higher: 139 to 140 °C for the first, 112 to 114 °C for the second.

First: Cc1cc(NC(=O)C(C)(C)Sc2ccc(Cl)cc2)c(C)c(C)c1O
Second: Cc1ccccc1-c1c(NC(=O)Nc2ccc(F)cc2F)c(=O)oc2ccc(C)c(C)c12
The melting point of the first is lower: 134 °C for the first, 232 to 234 °C for the second.

Compared with `COc1ccccc1Oc1c(NS(=O)(=O)c2cccs2)nc(-c2ncccn2)nc1OCCOc1ncc(Br)cn1`, `COc1ccc(Nc2nc(C)ncc2S(=O)(=O)c2ccc(OCc3ccccc3)cc2)c(C)c1` is lower in melting point: > 300 °C for the first, 110 to 114 °C for the second.

First: COc1cc(Cc2cnc(N[N+](=O)[O-])[nH]c2=O)ccn1
Second: COc1ccc(/C=C/c2ccncc2[N+](=O)[O-])cc1OC1CCCC1
The melting point of the first is higher: 194 to 196 °C for the first, 114 to 116 °C for the second.

`CC(=O)c1ccc(Nc2cccc(-c3cncnc3)c2)c([N+](=O)[O-])c1` and `O=C(c1ccc(Cl)c([N+](=O)[O-])c1)c1cc2ccccc2o1` cannot be ordered by melting point: 131 to 132 °C for the first, 132 °C for the second.

First: CCn1ncc2c3noc(-c4ccc(OC)cc4)c3cnc21
Second: CCn1ncc2c1ncc1c(SC)nc3ncnn3c12
The melting point of the first is higher: 215 to 216 °C for the first, 198 to 200 °C for the second.

Compared with `O=C(O)CCCCCCc1nc2c(F)c(F)cc(F)c2s1`, `O=C(CCCCc1cc(O)c(O)c([N+](=O)[O-])c1)NC12CC3CC(CC(C3)C1)C2` is higher in melting point: 116 to 118 °C for the first, 157 to 160 °C for the second.

Compared with `CN(C)c1cccc(C(=O)NCCc2c3n(c4ccccc24)C(=O)CCC3)c1`, `CC(C)(C)OC(=O)NCCc1c[nH]c2ccc(Oc3ccccc3)c(Cl)c12` is higher in melting point: 136 °C for the first, 163 to 166 °C for the second.

First: CCOCCOC(=O)C1=C(C)NC(CO)=C(C(=O)OCC)C1c1cccc([N+](=O)[O-])c1 (stereo unspecified)
Second: CCOC(=O)C1=C(C)N(C(=O)OCC)C(C)=C(C(=O)OCC)C1c1ccccc1C(F)(F)F
The melting point of the first is higher: 99 to 100 °C for the first, 56 to 58 °C for the second.

Compared with `Cc1nnc2n1-c1ccc(C#CCN3Cc4ccccc4C3=O)cc1C(c1ccccc1F)=NC2`, `CN1c2ccccc2CN(C(=O)C(F)(F)F)c2ccccc21` is lower in melting point: 165 to 168 °C for the first, 104 to 106 °C for the second.

Compared with `O=C(c1cccs1)c1cc2c(c(Cl)c1Cl)OC(CO)C2` (stereo unspecified), `COC(=O)c1sccc1Nc1ccnc2c(Cl)cccc12` is higher in melting point: 65 to 68 °C for the first, 226 °C for the second.

First: CC1C(C)(C)c2ccc(C#Cc3ccc(C=O)cc3)cc2C1(C)C (stereo unspecified)
Second: CC(=O)n1c(-c2ccc(C#N)cc2)cc2ccccc21
The melting point of the first is lower: 106 to 107 °C for the first, 158 to 160 °C for the second.

First: OCCCN1Cc2cccc3c2N(CC3)c2ccccc21
Second: Clc1cccc2c1C1=NCCN1C1C(c3ccccc3)CCN21 (stereo unspecified)
The melting point of the first is lower: 194 to 196 °C for the first, 249 to 250 °C for the second.

First: COc1cc2cc3c(=O)c(C#N)c[nH]c3cc2cc1OCc1ccccc1
Second: COc1ccc(C(=O)c2c(Cc3ccccc3)sc(C)c2C)cc1
The melting point of the first is higher: > 300 °C for the first, 85 to 86 °C for the second.

Compared with `CC(=O)N1CCc2cc(C(=O)CCCCCl)ccc21`, `CCCCn1c2ccccc2c2cc(C(=O)O)ncc21` is higher in melting point: 90 to 91 °C for the first, 182 to 184 °C for the second.

Compared with `CCOC(=O)c1cn(-c2nc(NCc3ccc(OC)cc3)c(Cl)cc2F)c2c(Cl)c(F)c(F)cc2c1=O`, `Cn1c(=O)c(-c2ccc(Cl)cc2Cl)cc2c3cc(-c4cocn4)ccc3n(C)c21` is higher in melting point: 168 to 171 °C for the first, 221 to 222 °C for the second.

First: O=C(Nc1nccs1)c1nc(-c2cccc3ccccc23)[nH]c1-c1ccc(C(F)(F)F)cc1
Second: CCCOc1ccc(C2=NN(C(=O)Nc3ccc(C(F)(F)F)cc3)CC2(C)C(=O)OC)cc1 (stereo unspecified)
The melting point of the first is higher: 222 to 223 °C for the first, 134 to 137 °C for the second.

Going from `O=S(=O)(c1ccc(Nc2nccc(Nc3ccc(F)cc3)n2)cc1)N(CCN1CCCC1)[C@H]1CC[C@H](O)CC1` to `O=C(N[C@H]1CC[C@H](CCN2CCC(c3cccc4c3CCO4)CC2)CC1)c1ccc(N2CCCCC2)cc1`, the melting point rises from 135 °C to 248 °C.

First: CC(C)(C)c1nc2cc(N3CCCC3)c(N)cc2s1
Second: CC(C)(C)c1cc(C=O)c(O)cc1Cl
The melting point of the first is higher: 130 to 132 °C for the first, 38 to 39 °C for the second.

First: COC(=O)[C@H](Cc1ccc(O)cc1)NC(=O)Cc1ccccc1
Second: ON=Cc1cccc(OCc2ccccc2)c1
The melting point of the first is higher: 101 °C for the first, 58 to 59 °C for the second.

Compared with `COc1ccc(C=C2SC(=O)N(CCc3ccccn3)C2=O)cc1-c1cc2c(cc1C)C(C)(C)CCC2(C)C`, `Cc1ccc(C[C@@H]2CN(CCCN3C(=O)c4ccccc4C3=O)CCN2C(=O)c2cc(C(F)(F)F)cc(C(F)(F)F)c2)cc1C` is lower in melting point: 170 to 171 °C for the first, 146 to 147 °C for the second.

First: CC(C)c1cc2c(cc1CSCC(=O)O)OCO2
Second: CC(C)c1ccc(C2(CC(=O)O)CNC(=O)C2)cc1 (stereo unspecified)
The melting point of the first is lower: 83 to 84 °C for the first, 175 to 178 °C for the second.

Compared with `O=C(c1ccn2c1CSC2c1cccnc1)c1cn(Cc2nnn[nH]2)c2cc(-c3ccc(F)cc3)ccc12` (stereo unspecified), `CCCCc1nc(CCc2ccccc2)nn1Cc1ccc(-c2ccccc2-n2cnnn2)cc1` is higher in melting point: 110 to 118 °C for the first, 156 to 157 °C for the second.

Compared with `C1=CCC23C=CC=CN2c2nccn2C3=C1` (stereo unspecified), `Clc1cnn2c(-c3ccccn3)ccnc12` is lower in melting point: 258 to 260 °C for the first, 141 to 143 °C for the second.

First: OCC1CCC(O)C1O (stereo unspecified)
Second: OCC1CNC2Cc3c[nH]c4cccc(c34)C2(O)C1 (stereo unspecified)
The melting point of the first is higher: 157 to 159 °C for the first, 145 to 149 °C for the second.

First: CCOC(=O)c1cnc(Oc2ccccc2)s1
Second: CC(C)(C)OC(=O)c1cn(-c2cccnc2)cn1
The melting point of the first is lower: 67 °C for the first, 81 to 82 °C for the second.

First: CC(C)NC(=O)N1C2=NC(C)(C)N(C)C(=O)N2c2ccccc21
Second: CC(C)Cc1c2c(nn1C)c(O)nc1ccccc12
The melting point of the first is lower: 93 to 96 °C for the first, > 280 °C for the second.

Compared with `OCCCn1c(C2CCCCC2)nc2ccc(Cl)cc21`, `COc1cccc(C23CCCC=C2C(=O)N(CC2CCC2)C(=O)C3)c1` (stereo unspecified) is lower in melting point: 120 °C for the first, 89 to 93 °C for the second.

First: CCCOc1ccc(S)cc1C(N)=O
Second: C=CCCc1ccc(NC(=O)OCc2ccccc2)c(O)n1
The melting point of the first is lower: 108 to 111 °C for the first, 179 to 180 °C for the second.

First: COC(=O)CCCc1nc(-c2ccc(F)cc2)c(-c2ccc(S(C)(=O)=O)cc2)o1
Second: O=C(NC(CCl)c1ccc(-c2ccc(S(=O)(=O)C(F)F)cc2)cc1)c1c(F)cccc1F (stereo unspecified)
The melting point of the first is lower: 89 to 91 °C for the first, 146 to 149 °C for the second.

Compared with `O=c1[nH]ncn1-c1ccc(I)cc1`, `Nc1cc(=O)n(Cc2ccc3ccccc3c2)[nH]1` is lower in melting point: 258 °C for the first, 156 to 157 °C for the second.

First: Cc1ccc(C(=O)Cn2c(=NS(=O)(=O)c3ccc(C)cc3)sc3ccccc32)cc1
Second: CS(=O)(=O)c1ccc(-n2nc(C(F)(F)F)cc2-c2ccc(-c3cscn3)cc2)cc1CO
The melting point of the first is lower: 180 to 182 °C for the first, 203 to 205 °C for the second.

First: Cc1cc(=O)[nH]nc1-c1ccc(-c2n[nH]c(=O)cc2C)cc1
Second: C=CCOc1ccc(-c2nc3n(c2-c2ccc(OCC=C)cc2)CCS3)cc1
The melting point of the first is higher: > 250 °C for the first, 135 to 138 °C for the second.

Compared with `COc1nc(N)nc2c1CCO2`, `CCCNc1nc(N)nc(C)c1/C=C/C(C)(C)c1ccc(C(F)(F)F)cc1` is lower in melting point: 172 to 177 °C for the first, 140 to 141 °C for the second.

First: COC1=C(OC)C(=O)C(N=[N+]=[N-])=C(C)C1=O
Second: CN1CC(=O)Nc2cccc(Cl)c2C1=O
The melting point of the first is lower: 48 to 50 °C for the first, 230 to 232 °C for the second.

First: C#CCN1C(=O)COc2ccc(-c3ncc(C(F)(F)F)cc3Cl)cc21
Second: Cc1ccc(NC(=O)/C=C/c2ccccc2C(F)(F)F)cc1NC(=N)c1ccccc1
The melting point of the first is higher: 136 to 137 °C for the first, 112 to 116 °C for the second.

First: CC(C)(C)C(=O)OC1CCC2(C)C(=CC(O)C3C2CCC2(C)C(=O)CC(OC(=O)C(C)(C)C)C32)C1 (stereo unspecified)
Second: CCOC(=O)COc1ccc(C(=O)[C@@H](NC(=O)c2ccc(C(=N)NC(=O)OC(C)(C)C)cc2)[C@@H](C)OC(C)(C)C)cc1
The melting point of the first is higher: 195 to 197 °C for the first, 95 to 97 °C for the second.

First: CCCN(CCC)C(=O)CNc1nc(-c2ccccc2)nc(CC)c1C
Second: FC(F)C(F)(F)Sc1nc(-c2ccccc2)c(-c2cccnc2)[nH]1
The melting point of the first is lower: 83 to 84 °C for the first, 153 to 154 °C for the second.

Compared with `CC(=O)Oc1cccc(C(=O)N[C@H]2COC(C)(C)OC[C@@H]2OS(C)(=O)=O)c1C`, `CC(C)(C)[Si](C)(C)Oc1ccc([N+](=O)[O-])cc1` is lower in melting point: 127 to 128 °C for the first, 36 to 38 °C for the second.

First: COc1ccc(-c2cc3cc(F)c(F)cc3[nH]2)cc1NC(=S)Nc1cc(Cl)cc(Cl)c1
Second: COc1cc2c(cc1Nc1ncc(Cl)c(Nc3ccc(N4CCOCC4)cc3OC)n1)CCN(CC(=O)OC(C)C)CC2
The melting point of the first is higher: 203 to 205 °C for the first, 70 to 80 °C for the second.

Compared with `CCCCC(CC)COc1ccc(-c2c3ccc(O)cc3c(-c3ccc(OCC(CC)CCCC)cc3)c3ccc(O)cc23)cc1` (stereo unspecified), `CCCO[C@@H]1[C@@H](OC)[C@H](C)O[C@@H](OC(=O)Nc2ccc(-c3ncn(-c4ccc(OC(F)(F)C(F)(F)F)cc4)n3)cc2)[C@@H]1OC` is lower in melting point: 195 to 197 °C for the first, 158 °C for the second.

First: Cc1cc(C(O)(C(F)(F)F)C(F)(F)F)cc(C)c1NCCN
Second: C=Cn1cc(C(=O)O)c(=O)c2cc(F)c(N3CCOCC3)cc21
The melting point of the first is lower: 158 to 161 °C for the first, 218 to 220 °C for the second.
